From ChEMBL document CHEMBL1201862, “PubChem BioAssay data set” (2004)
Structures can show the parent of a compound that is named as a salt.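 Following 48 hours of exposure in 96-well plates, responses at five concentrations were used to interpolate endpoints linearly. GI50 is the concentration that inhibits growth by half.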 Active and inactive are the calls of the source. No stated cut-off is given here; in the data, active = GI50 up to about 1.1 µM and inactive = higher.

Tests used:
Experiment in all cases: inhibition of tumour cell growth, NCI panel, 48 h
M19-MEL = tested on: M19-MEL
RXF 393 = tested on: RXF 393
RPMI-8226 = tested on: RPMI-8226
SF-268 = tested on: SF-268
SR = tested on: SR
M14 = tested on: M14
SN12C = tested on: SN12C
HOP-92 = tested on: HOP-92
NCI-H522 = tested on: NCI-H522
NCI-H460 = tested on: NCI-H460
OVCAR-8 = tested on: OVCAR-8
UO-31 = tested on: UO-31
HL-60 = tested on: HL-60
K562 = tested on: K562
HOP-62 = tested on: HOP-62
SNB-75 = tested on: SNB-75
LOX IMVI = tested on: LOX IMVI
A498 = tested on: A498
NCI/ADR-RES = tested on: NCI/ADR-RES
PC-3 = tested on: PC-3

| Compound | GI50 (M19-MEL) | GI50 (RXF 393) | GI50 (RPMI-8226) | GI50 (SF-268) | GI50 (SR) | GI50 (M14) | GI50 (SN12C) | GI50 (HOP-92) | GI50 (NCI-H522) | GI50 (NCI-H460) | GI50 (OVCAR-8) | GI50 (UO-31) | GI50 (HL-60) | GI50 (K562) | GI50 (HOP-62) | GI50 (SNB-75) | GI50 (LOX IMVI) | GI50 (A498) | GI50 (NCI/ADR-RES) | GI50 (PC-3) |
| --- | --- | --- | --- | --- | --- | --- | --- | --- | --- | --- | --- | --- | --- | --- | --- | --- | --- | --- | --- | --- |
| CCOC(=O)C1=C(C)CC2C(=O)OC(=O)C2C1(C)C (centres undefined) | > 100 µM (inactive) | > 100 µM (inactive) | > 100 µM (inactive) | > 100 µM (inactive) | > 100 µM (inactive) | > 100 µM (inactive) | > 100 µM (inactive) | > 100 µM (inactive) | > 100 µM (inactive) | > 100 µM (inactive) | > 100 µM (inactive) | > 100 µM (inactive) | > 100 µM (inactive) | > 100 µM (inactive) | – | – | – | – | – | – |
| COc1ccc(C(C#N)NNC(=O)c2ccccc2O)cc1OC (centres undefined) | 6.92 µM (inactive) | 0.902 µM (active) | 4.24 µM (inactive) | 0.468 µM (active) | 0.463 µM (active) | 0.75 µM (active) | 0.767 µM (active) | – | 3.28 µM (inactive) | 0.478 µM (active) | 1.46 µM (inactive) | 0.379 µM (active) | 1.76 µM (inactive) | 0.356 µM (active) | 13.2 µM (inactive) | 0.331 µM (active) | 0.735 µM (active) | – | – | – |
| CC(=O)O[C@H]1CCC2[C@@H]3CCC4Nc5[nH]ncc5C[C@]4(C)C3CC[C@@]21C (some centres undefined) | 32.7 µM (inactive) | > 100 µM (inactive) | 31.9 µM (inactive) | > 100 µM (inactive) | – | 21.4 µM (inactive) | > 100 µM (inactive) | – | 21.4 µM (inactive) | > 100 µM (inactive) | 34.9 µM (inactive) | > 100 µM (inactive) | 18.2 µM (inactive) | 36.3 µM (inactive) | > 100 µM (inactive) | 54 µM (inactive) | 0.405 µM (active) | > 100 µM (inactive) | – | – |
| Cc1ccc(NC(=O)CCC/C(CC(=O)c2ccc(Br)cc2)=N/NC(=O)CC#N)cc1 | > 100 µM (inactive) | > 100 µM (inactive) | > 100 µM (inactive) | > 100 µM (inactive) | – | > 100 µM (inactive) | > 100 µM (inactive) | > 100 µM (inactive) | – | > 100 µM (inactive) | > 100 µM (inactive) | > 100 µM (inactive) | > 100 µM (inactive) | – | > 100 µM (inactive) | > 100 µM (inactive) | > 100 µM (inactive) | – | – | – |
| COc1cc2c(cc1OC)C(C(CO)CO)N(CC(O)CCl)CC2 (centres undefined) | > 100 µM (inactive) | – | > 100 µM (inactive) | > 100 µM (inactive) | – | > 100 µM (inactive) | – | > 100 µM (inactive) | > 100 µM (inactive) | > 100 µM (inactive) | > 100 µM (inactive) | 86.5 µM (inactive) | > 100 µM (inactive) | > 100 µM (inactive) | > 100 µM (inactive) | > 100 µM (inactive) | > 100 µM (inactive) | > 100 µM (inactive) | – | – |
| CC1CC2(CCC1OCc1ccccc1)OCCO2 (centres undefined) | > 100 µM (inactive) | > 100 µM (inactive) | > 100 µM (inactive) | – | – | > 100 µM (inactive) | > 100 µM (inactive) | > 100 µM (inactive) | > 100 µM (inactive) | > 100 µM (inactive) | > 100 µM (inactive) | > 100 µM (inactive) | > 100 µM (inactive) | > 100 µM (inactive) | > 100 µM (inactive) | – | > 100 µM (inactive) | > 100 µM (inactive) | – | – |
| CCOC(=O)N1CCN(P(=O)(Nc2ccc3[nH]c(NC(=O)OC)nc3c2)Oc2ccccc2)CC1 (centres undefined) | > 100 µM (inactive) | > 100 µM (inactive) | 81.8 µM (inactive) | > 100 µM (inactive) | – | > 100 µM (inactive) | > 100 µM (inactive) | > 100 µM (inactive) | 37.5 µM (inactive) | > 100 µM (inactive) | > 100 µM (inactive) | > 100 µM (inactive) | > 100 µM (inactive) | 35 µM (inactive) | – | 77.6 µM (inactive) | > 100 µM (inactive) | > 100 µM (inactive) | – | – |
| C[n+]1cc(C(O)c2ccc3c(c2)OCO3)c2ccccc2c1 (centres undefined) | 40.6 µM (inactive) | 14.1 µM (inactive) | 13.9 µM (inactive) | 28.6 µM (inactive) | – | 25.4 µM (inactive) | 40.6 µM (inactive) | – | 16 µM (inactive) | 40.3 µM (inactive) | 33.3 µM (inactive) | 16.6 µM (inactive) | – | 25.1 µM (inactive) | 37.7 µM (inactive) | 41.1 µM (inactive) | 46 µM (inactive) | 29.9 µM (inactive) | – | – |
| CC(NC(C)(C)C)C(=O)c1cccc(Cl)c1 (centres undefined) [BUPROPION HYDROCHLORIDE] | > 100 µM (inactive) | > 100 µM (inactive) | > 100 µM (inactive) | > 100 µM (inactive) | – | > 100 µM (inactive) | > 100 µM (inactive) | – | > 100 µM (inactive) | > 100 µM (inactive) | > 100 µM (inactive) | – | – | > 100 µM (inactive) | > 100 µM (inactive) | > 100 µM (inactive) | > 100 µM (inactive) | > 100 µM (inactive) | – | – |
| Cc1nc2c(n1CCO)C(=O)c1ccccc1C2=O | 2.57 µM (inactive) | 33.7 µM (inactive) | – | 32.5 µM (inactive) | 26.4 µM (inactive) | 21.4 µM (inactive) | 31.4 µM (inactive) | – | 14.5 µM (inactive) | 27.3 µM (inactive) | 30.3 µM (inactive) | > 100 µM (inactive) | 19.9 µM (inactive) | 25.6 µM (inactive) | 28.6 µM (inactive) | 82.2 µM (inactive) | 23.4 µM (inactive) | – | – | – |
| COC(=O)CCC(C)[C@H]1CCC2C3C(C[C@H](OC(C)=O)[C@@]21C)[C@@]1(C)CCC2(C[C@H]1C[C@H]3OC(C)=O)OOC1(CCCCCCC1)OO2 (some centres undefined) | – | > 100 µM (inactive) | 1.67 µM (inactive) | 6.27 µM (inactive) | 2.29 µM (inactive) | 27.9 µM (inactive) | 23.3 µM (inactive) | 7.55 µM (inactive) | 10.9 µM (inactive) | 3.24 µM (inactive) | 4.82 µM (inactive) | 7.26 µM (inactive) | 4.3 µM (inactive) | 4.67 µM (inactive) | 4.99 µM (inactive) | 6.35 µM (inactive) | 3.65 µM (inactive) | > 100 µM (inactive) | > 100 µM (inactive) | 3.4 µM (inactive) |
| CNC(=O)NCCCCC(NC(C)=O)C(=O)NCc1ccccc1 (centres undefined) | > 100 µM (inactive) | > 100 µM (inactive) | > 100 µM (inactive) | > 100 µM (inactive) | – | > 100 µM (inactive) | > 100 µM (inactive) | > 100 µM (inactive) | > 100 µM (inactive) | > 100 µM (inactive) | > 100 µM (inactive) | > 100 µM (inactive) | – | > 10 µM (inactive) | > 100 µM (inactive) | 47.1 µM (inactive) | > 100 µM (inactive) | > 100 µM (inactive) | – | – |
| CSc1nc(Cl)c(Br)c(Sc2nc(N)nc3nc[nH]c23)n1 | 7.45 µM (inactive) | – | 2.25 µM (inactive) | 3.44 µM (inactive) | 3.48 µM (inactive) | 4.56 µM (inactive) | – | 7.28 µM (inactive) | 1.63 µM (inactive) | 5.07 µM (inactive) | 11 µM (inactive) | 5.01 µM (inactive) | 3.63 µM (inactive) | 3.34 µM (inactive) | 2 µM (inactive) | 3.03 µM (inactive) | – | – | – | – |
